Measured values: patent US20230233533A1, “COMPOSITIONS, METHODS OF TREATING AND PREVENTING FUNGAL INFECTIONS, AND METHODS OF INHIBITING PRP8 INTEIN EXPRESSION” (Health Research, Inc., priority 2020, published 2023)

How the values were obtained:
Prp8 intein [1] = assay: Western blot of Prp8 intein splicing in C. neoformans H99; assay type: cell-based; conditions: 0.32 μg/ml, 3 h post-treatment
Description: Western blot (WB)—Fresh colonies of Cryptococcus neoformans were grown in yeast extract peptone dextrose (YPD) broth in an environmental shaker (250 rpm) overnight at 30° C. The fungal cells (5 ml) were diluted in 125 ml YPD broth and grown for 1.5 h to a final cell density of 0.2 at OD530. The cells were distributed to test tubes (3 ml/tube). Then 3 ml of YPD medium containing DMF or 2-fold diluted compounds was added to the cells. The mixtures were incubated at 30° C. in a shaker at 250 RPM for up to 18 h. Samples were spun down and pellets were frozen for WB analysis.
Cryptococcal cells treated with DMF or compounds were washed twice with PBS buffer. Cells were spun down and supernatant was removed. For a 6-ml cell pellet, 30 μl of complete protease inhibitor cocktail in PBS was added to the cells, followed by addition of 400 μl lysis buffer (50 mM Tris, pH 8.0, 500 mM NaCl, 10% glycerol) and 500 μl glass beads. The fungal cells were lysed by rigorous beating for 2 min 3 times. The cell lysate was spun down. Supernatant was mixed with SDS-PAGE loading buffer (1:1). The mixtures were boiled at 95° C. for 10 min, followed by centrifugation at 15,000 rpm for 10 min. Samples were analyzed using 12% SDS-PAGE. The separated samples were blotted to a PVDF membrane and subjected to WB analysis using an antibody against the Prp8 intein. […]

[2] = test system: C. neoformans H99 strain transformed with empty vector, WT Prp8 or AAAA mutant; assay: Resistance study, MIC in H99 overexpressing Prp8 intein; assay type: cell-based, Cryptococcus neoformans
Description: For resistance studies, C. neoformans H99 strain transformed with an empty pXL1-PTEF1 vector, the Prp8-pXL1-PTEF1 (WT Prp8) construct, or the AAAA mutant were used, as described. Li et al., “Cisplatin Protects Mice From Challenge of Cryptococcus Neoformans by Targeting the Prp8 Intein,” Emerging Microbes & Infections 8(1):895-908 (2019), which is hereby incorporated by reference in its entirety. MICs for selected compounds were determined for these transformed cells as described above.

C. neoformans H99 = assay: Checkerboard assay; assay type: cell-based, Cryptococcus neoformans
Description: Compounds were initially dissolved in DMSO and diluted in RPMI-1640-MOPS media four times the targeted final concentration and 50 μl was added per well. The second compound was similarly diluted and 50 μl was added per well, to a final volume of 100 μl/well. C. neoformans […] inoculum (100 μl) prepared from freshly grown cultures and diluted to an absorbance of 0.1 at 530 nm in water and further diluted (1:500) in RPMI-1640-MOPS was added to each well. To determine the fungicidal concentration of a compound, the wells with no visible growth were serially diluted, plated on SDA, and incubated at 30° C. for 48-72 h for the recovery of colony-forming units. Additionally, the cell density of treated and untreated wells was also estimated by reading absorbance at 630 nm using an EL808 reader (Bio-Tek). Percentage of inhibition compared to that of the no-drug-control well was calculated. […] Fractional inhibitory concentration (FIC) index value is calculated as the […]. The FIC index value is then used to categorize the interaction of the two compounds tested. […] Doern, C., “When Does 2 plus 2 Equal 5?A Review of Antimicrobial Synergy Testing,” Journal of Clinical Microbiology 52(12):4124-4128 (2014), which is hereby incorporated by reference in its entirety.

Prp8 intein [3] = target: T1, Prp8 intein (Cryptococcus gattii, UniProt E6R027); assay: Split Renilla luciferase RLuc-Prp8 intein splicing assay; assay type: biochemical; conditions: compound at 20 μM
T1 sequence (E6R027 entry or part of it): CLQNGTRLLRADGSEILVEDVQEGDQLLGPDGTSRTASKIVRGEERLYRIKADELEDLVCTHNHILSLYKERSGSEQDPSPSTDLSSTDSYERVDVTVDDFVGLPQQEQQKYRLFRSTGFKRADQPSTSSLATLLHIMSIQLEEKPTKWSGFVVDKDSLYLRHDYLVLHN

Prp8 intein [4] = target: T1, Prp8 intein; assay: MIG-Prp8 in-gel splicing assay; assay type: biochemical; conditions: E. coli lysate, TCEP-triggered
Description: The MIG-Prp8 and Prp8-GFP in-gel splicing assays—The MIG Prp8 and Prp8-GFP splicing assays were carried out as described. […] The samples were analyzed in SDS-PAGE without boiling. The gels were quantified using GFP fluorescence and Coomassie blue staining with the Bio-Rad Gel Doc EZ.
This reporter system, MIG-Prp8, comprising a fusion protein of the Prp8 intein flanked by maltose binding protein (MBP) and green fluorescent protein (GFP), allowed observation of functional Prp8 intein splicing in Escherichia coli lysate. […] C-terminal cleavage product (CC; GFP) could also be visualized.

trypsin = assay: Trypsin protease inhibition (Abz FRET substrate); assay type: biochemical; conditions: compound at 400 μM
Description: Trypsin and papain protease inhibition—An Abz FRET substrate (Abz-RRRRSAG-nTyr) developed previously (Li et al., “Existing Drugs as Broad-Spectrum and Potent Inhibitors for Zika Virus by Targeting NS2B-NS3 Interaction,” Cell Research 27(8):1046-1064 (2017), which is hereby incorporated by reference in its entirety) was used as the substrate for inhibition of trypsin and papain proteases. In black and clear-bottom 96-well plates, 1 μg trypsin (Sigma-Aldrich) was incubated with DMF or compounds at 400 μM at 25° C. for 30 min in a 70 μl reaction buffer containing 20 mM Tris, pH 8.0, 100 mM NaCl, 5% Glycerol, and 0.05% CHAPS. For papain, 1 μg Papain (Sigma-Aldrich) was incubated with compounds at 400 μM at 25° C. for 30 min in a 70 μl reaction buffer composed of 1.1 mM EDTA, 0.067 mM β-mercaptoethanol, 5.5 mM cysteine. […]

O=C(Nc1ccc(F)cc1)c1nnsc1S(=O)(=O)c1ccc(Cl)cc1 [6G-318S, 5-[(4-chlorophenyl)sulfonyl]-N-(4-fluorophenyl)-1,2,3-thiadiazole-4-carboxamide]
inhibition of Prp8 splicing in vivo in C. neoformans (Prp8 intein [1]): completely inhibited Prp8 splicing
MIC with empty vector or AAAA mutant Prp8 intein-transformed H99 cells [2]: identical MIC values
increase of MIC in H99 transformed with WT Prp8 intein ([2]; compared to H99 with empty vector or AAAA mutant): 4 fold
MIC (C. neoformans H99; Cryptococcus neoformans, H99, 48 h): 1 µg/mL
Effect (C. neoformans H99; combination 6G-318S + 5-FC): Additive (>0.5 to 1 is additive)
MIC-comb (C. neoformans H99; combination 6G-318S + 5-FC, well D6): 0.500 µg/mL
Effect (C. neoformans H99; combination 6G-318S + AmB): Synergistic (FIC index value of ≤0.5 is considered as synergy)
MIC-comb (C. neoformans H99; combination 6G-318S + AmB, well F6): 0.125 µg/mL
Effect (C. neoformans H99; combination 6G-318S + IZ): Additive (>0.5 to 1 is additive)
MIC-comb (C. neoformans H99; combination 6G-318S + IZ, well D6): 0.500 µg/mL
Effect (C. neoformans H99; combination 6G-318S + Vor): Indifferent (>1 to 4 is indifferent)
MIC-comb (C. neoformans H99; combination 6G-318S + Vor, well G3): 0.063 µg/mL
suppression of RLuc-Prp8 intein splicing activity (Prp8 intein [3]): greater than 50%
inhibition of MIG-Prp8 splicing (Prp8 intein [4]): accumulation of the MIG-Prp8 precursor PP and decrease of LE product in a dose-dependent manner
inhibition of trypsin protease activity (trypsin): neither 6G-318S, 6G-319S, nor cisplatin significantly inhibited
